Assay: xn = mol fraction of the nth substance listed
Conditions: 101 kPa, Liquid

CCc1ccccc1 [ethylbenzene] + CN1CCCC1=O
Conditions | mass density [kg/m3]
293.15 K, x1 = 0.0854 | 1016.73
293.15 K, x1 = 0.1254 | 1009.4
293.15 K, x1 = 0.1847 | 998.68
293.15 K, x1 = 0.2475 | 987.56
293.15 K, x1 = 0.3021 | 978.07
293.15 K, x1 = 0.3654 | 967.23
293.15 K, x1 = 0.4251 | 957.16
293.15 K, x1 = 0.4985 | 944.94
293.15 K, x1 = 0.5471 | 936.92
293.15 K, x1 = 0.6012 | 928.06
293.15 K, x1 = 0.6621 | 918.17
293.15 K, x1 = 0.7214 | 908.66
293.15 K, x1 = 0.7954 | 897.01
293.15 K, x1 = 0.8451 | 889.37
293.15 K, x1 = 0.9214 | 878.1
293.15 K, x1 = 1 | 867.28
303.15 K, x1 = 0.0458 | 1014.88
303.15 K, x1 = 0.1012 | 1004.66
303.15 K, x1 = 0.1685 | 992.46
303.15 K, x1 = 0.2314 | 981.29
303.15 K, x1 = 0.2958 | 970.09
303.15 K, x1 = 0.3541 | 960.11
303.15 K, x1 = 0.4217 | 948.71
303.15 K, x1 = 0.4851 | 938.16
303.15 K, x1 = 0.5471 | 927.94
303.15 K, x1 = 0.6012 | 919.09
303.15 K, x1 = 0.6874 | 905.16
303.15 K, x1 = 0.7451 | 895.97
303.15 K, x1 = 0.8124 | 885.46
303.15 K, x1 = 0.8954 | 872.96
303.15 K, x1 = 0.9654 | 863.01
303.15 K, x1 = 1 | 858.36
313.15 K, x1 = 0.0547 | 1004.11
313.15 K, x1 = 0.1245 | 991.32
313.15 K, x1 = 0.1874 | 980.01
313.15 K, x1 = 0.2451 | 969.83
313.15 K, x1 = 0.3012 | 960.1
313.15 K, x1 = 0.3621 | 949.71
313.15 K, x1 = 0.4321 | 937.95
313.15 K, x1 = 0.4985 | 926.93
313.15 K, x1 = 0.5621 | 916.47
313.15 K, x1 = 0.6251 | 906.2
313.15 K, x1 = 0.6958 | 894.8
313.15 K, x1 = 0.7589 | 884.77
313.15 K, x1 = 0.8245 | 874.57
313.15 K, x1 = 0.9014 | 863.06
313.15 K, x1 = 0.9789 | 852.18
313.15 K, x1 = 1 | 849.38
323.15 K, x1 = 0.0654 | 993.44
323.15 K, x1 = 0.1123 | 984.81
323.15 K, x1 = 0.1785 | 972.82
323.15 K, x1 = 0.2356 | 962.68
323.15 K, x1 = 0.2959 | 952.18
323.15 K, x1 = 0.3575 | 941.62
323.15 K, x1 = 0.4154 | 931.85
323.15 K, x1 = 0.4825 | 920.66
323.15 K, x1 = 0.5415 | 910.92
323.15 K, x1 = 0.606 | 900.36
323.15 K, x1 = 0.6784 | 888.62
323.15 K, x1 = 0.7451 | 877.94
323.15 K, x1 = 0.8214 | 866
323.15 K, x1 = 0.8954 | 854.87
323.15 K, x1 = 0.9548 | 846.41
323.15 K, x1 = 1 | 840.35
333.15 K, x1 = 0.0687 | 983.52
333.15 K, x1 = 0.1254 | 973.12
333.15 K, x1 = 0.1874 | 961.93
333.15 K, x1 = 0.2454 | 951.67
333.15 K, x1 = 0.3021 | 941.83
333.15 K, x1 = 0.3654 | 931.02
333.15 K, x1 = 0.4251 | 920.99
333.15 K, x1 = 0.4784 | 912.12
333.15 K, x1 = 0.5241 | 904.57
333.15 K, x1 = 0.5864 | 894.36
333.15 K, x1 = 0.6478 | 884.37
333.15 K, x1 = 0.7012 | 875.76
333.15 K, x1 = 0.7898 | 861.71
333.15 K, x1 = 0.8457 | 853.12
333.15 K, x1 = 0.9254 | 841.39
333.15 K, x1 = 1 | 831.25
343.15 K, x1 = 0.0784 | 972.86
343.15 K, x1 = 0.1354 | 962.43
343.15 K, x1 = 0.1985 | 951.09
343.15 K, x1 = 0.2415 | 943.48
343.15 K, x1 = 0.3021 | 932.94
343.15 K, x1 = 0.3654 | 922.12
343.15 K, x1 = 0.4251 | 912.06
343.15 K, x1 = 0.4984 | 899.86
343.15 K, x1 = 0.5641 | 889.03
343.15 K, x1 = 0.6214 | 879.66
343.15 K, x1 = 0.6985 | 867.19
343.15 K, x1 = 0.7515 | 858.72
343.15 K, x1 = 0.8125 | 849.17
343.15 K, x1 = 0.8895 | 837.51
343.15 K, x1 = 0.9784 | 824.96
343.15 K, x1 = 1 | 822.11
353.15 K, x1 = 0.0874 | 962.38
353.15 K, x1 = 0.1421 | 952.35
353.15 K, x1 = 0.2032 | 941.34
353.15 K, x1 = 0.2874 | 926.52
353.15 K, x1 = 0.3451 | 916.58
353.15 K, x1 = 0.4021 | 906.9
353.15 K, x1 = 0.487 | 892.69
353.15 K, x1 = 0.5474 | 882.68
353.15 K, x1 = 0.612 | 872.06
353.15 K, x1 = 0.6874 | 859.79
353.15 K, x1 = 0.7458 | 850.42
353.15 K, x1 = 0.8211 | 838.6
353.15 K, x1 = 0.8954 | 827.4
353.15 K, x1 = 0.9445 | 820.37
353.15 K, x1 = 0.98 | 815.52
353.15 K, x1 = 1 | 812.9

Reference: the NIST ThermoML archive (doi:10.1016/j.jct.2006.05.006)
